Source: the NIST ThermoML archive (doi:10.1016/j.fluid.2012.08.020)
Where “and” joins values, the source holds several entries; their conditions need not be identical. Identical values can stand only once. Numbers after ± are expanded uncertainties.

Assays:
[1] = molar enthalpy of vaporization or sublimation; conditions: Liquid, Calvet Calorimetry

Cc1ccccc1-c1ccccc1 [2-methylbiphenyl]
Liquid, Transpiration method
Conditions	vapor or sublimation pressure [kPa]
301 K	0.00376 ± 0.00027
303.5 K	0.00477 ± 0.00034
305.9 K	0.0056 ± 0.0004
308.4 K	0.00692 ± 0.0005
310.9 K	0.00851 ± 0.00061
313.4 K	0.01043 ± 0.00075
315.9 K	0.0128 ± 0.00091
318.4 K	0.01527 ± 0.0011
320.8 K	0.0183 ± 0.0013
323.3 K	0.02232 ± 0.0016
325.8 K	0.02641 ± 0.0019
328.3 K	0.0314 ± 0.0022
330.7 K	0.03763 ± 0.0027
333.2 K	0.04446 ± 0.0032
335.7 K	0.05183 ± 0.0037
338.1 K	0.06106 ± 0.0043
340.6 K	0.07203 ± 0.0051
343.1 K	0.08401 ± 0.0059
345.6 K	0.09811 ± 0.0069
348.1 K	0.1141 ± 0.008

CC(C)(C)c1cccc(-c2ccccc2)c1 [3-(1,1-dimethylethyl)-1,1'-biphenyl]
Liquid
Conditions	vapor or sublimation pressure [kPa]
323 K, Transpiration method	0.00191 ± 0.00014
325.9 K, Transpiration method	0.00244 ± 0.00017
328.5 K, Transpiration method	0.00298 ± 0.00021
331 K, Transpiration method	0.00368 ± 0.00026
333.4 K, Transpiration method	0.00447 ± 0.00032
335.3 K, Transpiration method	0.00514 ± 0.00037
338.2 K, Transpiration method	0.00653 ± 0.00047
340.8 K, Transpiration method	0.00801 ± 0.00057
343.3 K, Transpiration method	0.00917 ± 0.00065
345.5 K, Transpiration method	0.0113 ± 0.00081
348.1 K, Transpiration method	0.01363 ± 0.00097
350.7 K, Transpiration method	0.01622 ± 0.0011
353.4 K, Transpiration method	0.01957 ± 0.0014
356 K, Transpiration method	0.02333 ± 0.0017
358.5 K, Transpiration method	0.0282 ± 0.002
361.3 K, Transpiration method	0.03303 ± 0.0023
440.79 K, Ebulliometric method (Recirculating still)	2.117 ± 0.1
459.53 K, Ebulliometric method (Recirculating still)	4.346 ± 0.1
473.75 K, Ebulliometric method (Recirculating still)	7.152 ± 0.1
486.07 K, Ebulliometric method (Recirculating still)	10.66 ± 0.1
493.76 K, Ebulliometric method (Recirculating still)	13.5 ± 0.1
501.46 K, Ebulliometric method (Recirculating still)	16.96 ± 0.1
509.1 K, Ebulliometric method (Recirculating still)	21.07 ± 0.1
518.78 K, Ebulliometric method (Recirculating still)	27.41 ± 0.1
527.38 K, Ebulliometric method (Recirculating still)	34.27 ± 0.1
537.26 K, Ebulliometric method (Recirculating still)	43.86 ± 0.1
547.55 K, Ebulliometric method (Recirculating still)	56.03 ± 0.1
558.29 K, Ebulliometric method (Recirculating still)	71.52 ± 0.11
570.25 K, Ebulliometric method (Recirculating still)	92.61 ± 0.11
582 K, Ebulliometric method (Recirculating still)	118.1 ± 0.11

Conditions	Normal boiling temperature [°C]
Liquid, Ebulliometric method (Recirculating still)	301.34 ± 0.2

CC(C)c1cccc(-c2ccccc2)c1 [3-(1-Methylethyl)-1,1'-biphenyl]
Liquid
Conditions	vapor or sublimation pressure
302.8 K, Transpiration method	0.00045 ± 3e-05 kPa
303.3 K, Transpiration method	0.00044 ± 3e-05 kPa
305.9 K, Transpiration method	0.00061 ± 4e-05 kPa
307.8 K, Transpiration method	0.0007 ± 5e-05 kPa
309.9 K, Transpiration method	0.0009 ± 7e-05 kPa
312.9 K, Transpiration method	0.00122 ± 9e-05 kPa
313.3 K, Transpiration method	0.00116 ± 9e-05 kPa
315.9 K, Transpiration method	0.00146 ± 0.00011 kPa
317.9 K, Transpiration method	0.00187 ± 0.00014 kPa
319.9 K, Transpiration method	0.00217 ± 0.00015 kPa
322.9 K, Transpiration method	0.00265 ± 0.0002 kPa and 0.00276 ± 0.00023 kPa
323.3 K, Transpiration method	0.0025 ± 0.00019 kPa
325.8 K, Transpiration method	0.00378 ± 0.00027 kPa
327.8 K, Transpiration method	0.00388 ± 0.00027 kPa
328 K, Transpiration method	0.00408 ± 0.00029 kPa
329.8 K, Transpiration method	0.00479 ± 0.00035 kPa
332.3 K, Transpiration method	0.00644 ± 0.00046 kPa
332.8 K, Transpiration method	0.0062 ± 0.00043 kPa
333.3 K, Transpiration method	0.0064 ± 0.00046 kPa and 0.00674 ± 0.00048 kPa and 0.0065 ± 0.00047 kPa
333.4 K, Transpiration method	0.00634 ± 0.00046 kPa and 0.00708 ± 0.00051 kPa
335.3 K, Transpiration method	0.0078 ± 0.00057 kPa
335.8 K, Transpiration method	0.00832 ± 0.00058 kPa
336.3 K, Transpiration method	0.00811 ± 0.00059 kPa and 0.0082 ± 0.00059 kPa
337.3 K, Transpiration method	0.00945 ± 0.00067 kPa
337.7 K, Transpiration method	0.00887 ± 0.00062 kPa
338 K, Transpiration method	0.00931 ± 0.00071 kPa
338.3 K, Transpiration method	0.00975 ± 0.00074 kPa
340.3 K, Transpiration method	0.01113 ± 0.00079 kPa
342.3 K, Transpiration method	0.01244 ± 0.0009 kPa
343.1 K, Transpiration method	0.01478 ± 0.0011 kPa and 0.01437 ± 0.001 kPa
343.3 K, Transpiration method	0.01376 ± 0.00099 kPa and 0.01441 ± 0.001 kPa
345.3 K, Transpiration method	0.01629 ± 0.0012 kPa and 0.01561 ± 0.0011 kPa
347.3 K, Transpiration method	0.01952 ± 0.0014 kPa and 0.01755 ± 0.0012 kPa
348.3 K, Transpiration method	0.01973 ± 0.0014 kPa and 0.02029 ± 0.0014 kPa and 0.02064 ± 0.0014 kPa
349.3 K, Transpiration method	0.02026 ± 0.0014 kPa
351.3 K, Transpiration method	0.02423 ± 0.0017 kPa
353.2 K, Transpiration method	0.02884 ± 0.0021 kPa
353.3 K, Transpiration method	0.02848 ± 0.0021 kPa
358.2 K, Transpiration method	0.04134 ± 0.0029 kPa
434.53 K, Ebulliometric method (Recirculating still)	2.17 ± 0.1 kPa
452.99 K, Ebulliometric method (Recirculating still)	4.346 ± 0.1 kPa
467.03 K, Ebulliometric method (Recirculating still)	7.152 ± 0.1 kPa
479.19 K, Ebulliometric method (Recirculating still)	10.66 ± 0.1 kPa
486.79 K, Ebulliometric method (Recirculating still)	13.5 ± 0.1 kPa
494.39 K, Ebulliometric method (Recirculating still)	16.96 ± 0.1 kPa
501.93 K, Ebulliometric method (Recirculating still)	21.07 ± 0.1 kPa
511.48 K, Ebulliometric method (Recirculating still)	27.41 ± 0.1 kPa
519.96 K, Ebulliometric method (Recirculating still)	34.27 ± 0.1 kPa
529.73 K, Ebulliometric method (Recirculating still)	43.86 ± 0.1 kPa
539.88 K, Ebulliometric method (Recirculating still)	56.03 ± 0.1 kPa
550.47 K, Ebulliometric method (Recirculating still)	71.52 ± 0.11 kPa
562.29 K, Ebulliometric method (Recirculating still)	92.61 ± 0.11 kPa
573.95 K, Ebulliometric method (Recirculating still)	118.1 ± 0.11 kPa

Conditions	Normal boiling temperature, Ebulliometric method (Recirculating still) [°C]	molar enthalpy, 323.15 K [kJ/mol]	molar enthalpy, 333.15 K [kJ/mol]	molar enthalpy, 343.15 K [kJ/mol]	molar enthalpy, 353.15 K [kJ/mol]	molar enthalpy, 363.15 K [kJ/mol]	molar enthalpy, 373.15 K [kJ/mol]
Liquid	293.39 ± 0.2	–	–	–	–	–	–
[1]	–	74.3 ± 1	73.2 ± 1.1	72.4 ± 1.1	71.6 ± 1	70.3 ± 1	69.5 ± 1

Cc1cccc(-c2ccccc2)c1 [3-methylbiphenyl]
Liquid, Transpiration method
Conditions	vapor or sublimation pressure [kPa]
318.8 K	0.00702 ± 0.0005
320.4 K	0.00797 ± 0.00057
323.3 K	0.01012 ± 0.00072
325.5 K	0.01178 ± 0.00084
328.1 K	0.01408 ± 0.001
330.3 K	0.01692 ± 0.0012
333.1 K	0.02024 ± 0.0014
336.1 K	0.02586 ± 0.0018
338.5 K	0.03025 ± 0.0021
340.4 K	0.03425 ± 0.0024
343.2 K	0.04154 ± 0.0029
346.4 K	0.05071 ± 0.0036
348.5 K	0.05569 ± 0.0039
350.8 K	0.06543 ± 0.0046
353.7 K	0.07738 ± 0.0055
356.2 K	0.09688 ± 0.0069
358.3 K	0.1068 ± 0.0075
360.8 K	0.1231 ± 0.0087
363.6 K	0.1459 ± 0.01
365.8 K	0.1642 ± 0.012

CC(C)(C)c1ccc(-c2ccc(C(C)(C)C)cc2)cc1 [4,4'-bis(1,1-dimethylethyl)-1,1'-biphenyl]
Crystal, Transpiration method
Conditions	vapor or sublimation pressure [kPa]
335.5 K	7.9e-05 ± 6e-06
338.5 K	0.00011 ± 8e-06
341.5 K	0.000146 ± 1.1e-05
343.5 K	0.000176 ± 1.3e-05
348.2 K	0.000291 ± 2.1e-05
351.5 K	0.000425 ± 3.1e-05
353.9 K	0.000537 ± 4e-05
358.5 K	0.000887 ± 6.4e-05
363.7 K	0.001398 ± 0.0001
365.5 K	0.001697 ± 0.00012
368.6 K	0.002328 ± 0.00017
370.5 K	0.002679 ± 0.00019
373.5 K	0.003653 ± 0.00026
373.7 K	0.003396 ± 0.00024
375.7 K	0.004092 ± 0.0003
378.2 K	0.005541 ± 0.0004
380.4 K	0.006527 ± 0.00047
382.5 K	0.007664 ± 0.00055
384.7 K	0.009379 ± 0.00067

Cc1ccc(-c2ccc(C)cc2)cc1 [4,4'-dimethylbiphenyl]
Crystal, Transpiration method
Conditions	vapor or sublimation pressure [kPa]
334.2 K	0.00389 ± 0.00029
339.3 K	0.00638 ± 0.00046
343.2 K	0.00955 ± 0.0007
349.2 K	0.01668 ± 0.0012
353.7 K	0.02516 ± 0.0018
354.6 K	0.02591 ± 0.0018
358.8 K	0.03834 ± 0.0028
363.7 K	0.05681 ± 0.0041
368.7 K	0.08722 ± 0.0063
374.5 K	0.1474 ± 0.011
379.5 K	0.2146 ± 0.015

CC(C)(C)c1ccc(-c2ccccc2)cc1 [4-(1,1-dimethylethyl)-1,1'-biphenyl]
Liquid, Ebulliometric method (Recirculating still)
Conditions	vapor or sublimation pressure [kPa]
448.41 K	2.117 ± 0.1
467.65 K	4.346 ± 0.1
482.23 K	7.152 ± 0.1
494.83 K	10.66 ± 0.1
502.69 K	13.5 ± 0.1
510.59 K	16.96 ± 0.1
518.4 K	21.07 ± 0.1
528.31 K	27.41 ± 0.1
537.1 K	34.27 ± 0.1
547.22 K	43.86 ± 0.1
557.74 K	56.03 ± 0.1
568.72 K	71.52 ± 0.11
580.98 K	92.61 ± 0.11
593.09 K	118.1 ± 0.11

Conditions	Normal boiling temperature [°C]
Liquid, Ebulliometric method (Recirculating still)	312.24 ± 0.2

Cc1ccc(-c2ccccc2)cc1 [4-methylbiphenyl]
Conditions	Normal boiling temperature [°C]
Liquid, Ebulliometric method (Recirculating still)	274.4 ± 0.2
